Values quoted from earlier work in paper PMC9898036, “VIP152 is a selective CDK9 inhibitor with pre-clinical in vitro and in vivo efficacy in chronic lymphocytic leukemia” (Leukemia, 2022).

Tested on: CLL patients
Conditions: cited from earlier work

CCc1cnn2c(NCc3ccc[n+]([O-])c3)cc(N3CCCC[C@H]3CCO)nc12 [dinaciclib]
patients having a partial response: 64%
